Experiment [1] concerns Zymoseptoria tritici. As to the kind of experiment: Fungicidal activity against Zymoseptoria tritici isolate IPO323 without 120 bp insertion expressing wild type CYP51 assessed as fungal growth inhibition. In kind it is functional, organism-based.
For experiment [2], the system named is Zymoseptoria tritici. Put plainly: Fungicidal activity against Zymoseptoria tritici isolate TAG1-18 with 120 bp insertion expressing CYP51 variant with combination of L50S, S188N, I381V, deltaY459/G460 and N513K mutations assessed as fungal growth inhibition. Type of experiment: functional, organism-based.
The test system of experiment [3] is Zymoseptoria tritici. As to the kind of experiment: Fungicidal activity against Zymoseptoria tritici isolate OP6 without 120 bp insertion expressing CYP51 variant with combination of L50S, S188N, I381V, deltaY459/G460 and N513K mutations assessed as fungal growth inhibition. In kind it is functional, organism-based.
Experiment [4] has as its system Zymoseptoria tritici. Put plainly: Fungicidal activity against Zymoseptoria tritici isolate TAG74-3 with 120 bp insertion expressing CYP51 variant with combination of L50S, S188N, I381V, deltaY459/G460 and N513K mutations assessed as fungal growth inhibition. Type of experiment: functional, organism-based.
The test system of experiment [5] is Zymoseptoria tritici. Put plainly: Fungicidal activity against Zymoseptoria tritici isolate V18 with 120 bp insertion expressing CYP51 variant with combination of L50S, S188N, I381V, deltaY459/G460 and N513K mutations assessed as fungal growth inhibition. In kind it is functional, organism-based.
Experiment [6] deals with Zymoseptoria tritici. Put plainly: Fungicidal activity against Zymoseptoria tritici isolate R03-54 without 120 bp insertion expressing CYP51 variant with combination of L50S, S188N, I381V, deltaY459/G460 and N513K mutations assessed as fungal growth inhibition. Type of experiment: functional, organism-based.
Experiment [7] has as its system Zymoseptoria tritici. Put plainly: Fungicidal activity against Zymoseptoria tritici isolate R10-13 without 120 bp insertion expressing CYP51 variant with combination of L50S, S188N, I381V, deltaY459/G460 and N513K mutations assessed as fungal growth inhibition. In kind it is functional, organism-based.
Experiment [8] relates to Zymoseptoria tritici. Put plainly: Fungicidal activity against Zymoseptoria tritici isolate OP7 with 120 bp insertion expressing CYP51 variant with combination of L50S, S188N, I381V, deltaY459/G460 and N513K mutations assessed as fungal growth inhibition. In kind it is functional, organism-based.
In experiment [9] the test system is Zymoseptoria tritici. Put plainly: Fungicidal activity against Zymoseptoria tritici isolate R03-29 without 120 bp insertion expressing CYP51 variant with combination of L50S, S188N, I381V, deltaY459/G460 and N513K mutations assessed as fungal growth inhibition. Type of experiment: functional, organism-based.
Experiment [10] concerns Zymoseptoria tritici. As to the kind of experiment: Fungicidal activity against Zymoseptoria tritici isolate TAG74-3 with 120 bp insertion expressing CYP51 variant with combination of L50S, S188N, I381V, deltaY459/G460 and N513K mutations inoculated on compound pre-treated wheat cultivar Riband seedlings assessed as pycnidia formation at 28.13 ppm measured 21 days post fungal inoculation. In kind it is functional, organism-based.

In experiment [11] the test system is Zymoseptoria tritici. As to the kind of experiment: Fungicidal activity against Zymoseptoria tritici isolate TAG74-3 with 120 bp insertion expressing CYP51 variant with combination of L50S, S188N, I381V, deltaY459/G460 and N513K mutations inoculated on compound pre-treated wheat cultivar Riband seedlings assessed as pycnidia formation at doses > 1/16 recommended field rate measured 21 days post fungal inoculation. Type of experiment: functional, organism-based.

Experiment [12] deals with Zymoseptoria tritici. Put plainly: Fungicidal activity against Zymoseptoria tritici isolate OP7 with 120 bp insertion expressing CYP51 variant with combination of L50S, S188N, I381V, deltaY459/G460 and N513K mutations inoculated on compound pre-treated wheat cultivar Riband seedlings assessed as pycnidia formation at 28.13 ppm measured 21 days post fungal inoculation. In kind it is functional, organism-based.

The subject of experiment [13] is Zymoseptoria tritici. As to the kind of experiment: Fungicidal activity against Zymoseptoria tritici isolate OP7 with 120 bp insertion expressing CYP51 variant with combination of L50S, S188N, I381V, deltaY459/G460 and N513K mutations inoculated on compound pre-treated wheat cultivar Riband seedlings assessed as fungal DNA level at 28.13 ppm measured 21 days post fungal inoculation. Type of experiment: functional.

Experiment [14] concerns Zymoseptoria tritici. Put plainly: Fungicidal activity against Zymoseptoria tritici isolate OP7 with 120 bp insertion expressing CYP51 variant with combination of L50S, S188N, I381V, deltaY459/G460 and N513K mutations inoculated on compound pre-treated wheat cultivar Riband seedlings assessed as pycnidia formation at doses > 1/16 recommended field rate measured 21 days post fungal inoculation. Type of experiment: functional, organism-based.

The subject of experiment [15] is Zymoseptoria tritici. Put plainly: Fungicidal activity against Zymoseptoria tritici isolate R10-13 without 120 bp insertion expressing CYP51 variant with combination of L50S, S188N, I381V, deltaY459/G460 and N513K mutations inoculated on compound pre-treated wheat cultivar Riband seedlings assessed as fungal DNA level at 28.13 ppm measured 21 days post fungal inoculation. Type of experiment: functional.

Experiment [16] concerns Zymoseptoria tritici. Put plainly: Fungicidal activity against Zymoseptoria tritici isolate TAG74-3 with 120 bp insertion expressing CYP51 variant with combination of L50S, S188N, I381V, deltaY459/G460 and N513K mutations inoculated on compound pre-treated wheat cultivar Riband seedlings assessed as fungal DNA level at 28.13 ppm measured 21 days post fungal inoculation. In kind it is functional.

For experiment [17], the system named is Zymoseptoria tritici. Put plainly: Fungicidal activity against Zymoseptoria tritici isolate OP6 without 120 bp insertion expressing CYP51 variant with combination of L50S, S188N, I381V, deltaY459/G460 and N513K mutations inoculated on compound pre-treated wheat cultivar Riband seedlings assessed as fungal DNA level at 28.13 ppm measured 21 days post fungal inoculation. Type of experiment: functional.

Experiment [18] concerns Zymoseptoria tritici. As to the kind of experiment: Fungicidal activity against Zymoseptoria tritici isolate TAG74-3 with 120 bp insertion expressing CYP51 variant with combination of L50S, S188N, I381V, deltaY459/G460 and N513K mutations inoculated on compound pre-treated wheat cultivar Riband seedlings assessed as fungal DNA level at doses > 1/16 recommended field rate measured 21 days post fungal inoculation. In kind it is functional, organism-based.

Experiment [19] concerns Zymoseptoria tritici. Put plainly: Fungicidal activity against Zymoseptoria tritici isolate OP7 with 120 bp insertion expressing CYP51 variant with combination of L50S, S188N, I381V, deltaY459/G460 and N513K mutations inoculated on compound pre-treated wheat cultivar Riband seedlings assessed as fungal DNA level at doses > 1/16 recommended field rate measured 21 days post fungal inoculation. Type of experiment: functional, organism-based.

Experiment [20] has as its system Zymoseptoria tritici. Put plainly: Fungicidal activity against Zymoseptoria tritici isolate R10-13 without 120 bp insertion expressing CYP51 variant with combination of L50S, S188N, I381V, deltaY459/G460 and N513K mutations inoculated on compound pre-treated wheat cultivar Riband seedlings assessed as fungal DNA level at 39.06 ppm measured 21 days post fungal inoculation. In kind it is functional.

Experiment [21] deals with Zymoseptoria tritici. As to the kind of experiment: Fungicidal activity against Zymoseptoria tritici isolate OP6 without 120 bp insertion expressing CYP51 variant with combination of L50S, S188N, I381V, deltaY459/G460 and N513K mutations inoculated on compound pre-treated wheat cultivar Riband seedlings assessed as fungal DNA level at 39.06 ppm measured 21 days post fungal inoculation. Type of experiment: functional.

In experiment [22] the test system is Zymoseptoria tritici. Put plainly: Fungicidal activity against Zymoseptoria tritici isolate TAG74-3 with 120 bp insertion expressing CYP51 variant with combination of L50S, S188N, I381V, deltaY459/G460 and N513K mutations inoculated on compound pre-treated wheat cultivar Riband seedlings assessed as fungal DNA level at 39.06 ppm measured 21 days post fungal inoculation. In kind it is functional.

Experiment [23] relates to Zymoseptoria tritici. Put plainly: Fungicidal activity against Zymoseptoria tritici isolate OP7 with 120 bp insertion expressing CYP51 variant with combination of L50S, S188N, I381V, deltaY459/G460 and N513K mutations inoculated on compound pre-treated wheat cultivar Riband seedlings assessed as fungal DNA level at 39.06 ppm measured 21 days post fungal inoculation. In kind it is functional.

Experiment [24] has as its system Zymoseptoria tritici. Put plainly: Fungicidal activity against Zymoseptoria tritici isolate TAG74-3 with 120 bp insertion expressing CYP51 variant with combination of L50S, S188N, I381V, deltaY459/G460 and N513K mutations inoculated on compound pre-treated wheat cultivar Riband seedlings assessed as pycnidia formation at 39.06 ppm measured 21 days post fungal inoculation. In kind it is functional, organism-based.

The test system of experiment [25] is Zymoseptoria tritici. Put plainly: Fungicidal activity against Zymoseptoria tritici isolate OP7 with 120 bp insertion expressing CYP51 variant with combination of L50S, S188N, I381V, deltaY459/G460 and N513K mutations inoculated on compound pre-treated wheat cultivar Riband seedlings assessed as pycnidia formation at 39.06 ppm measured 21 days post fungal inoculation. In kind it is functional, organism-based.

This is an account of results in ChEMBL document CHEMBL3046614, “Overexpression of the sterol 14α-demethylase gene (MgCYP51) in Mycosphaerella graminicola isolates confers a novel azole fungicide sensitivity phenotype” (Pest Manag Sci, 2012).

Values after ≈ are worked out from the molar mass of the structure shown. Active and inactive are the calls of the source. The rule behind the calls is not given here.

Broadly, the EC50 is the midpoint of the concentration-response curve. Consider `CCCN(CCOc1c(Cl)cc(Cl)cc1Cl)C(=O)n1ccnc1` [PROCHLORAZ], for which the EC50 in experiment [1] was 0.015 µg/mL (≈ 0.0398 µM); in experiment [2], 0.294 µg/mL; in [3], 0.019 µg/mL; in experiment [4], 0.624 µg/mL; in experiment [5], 0.239 µg/mL; in experiment [6], 0.025 µg/mL. The values for the EC50 in experiment [7], in experiment [8] and in experiment [9] were 0.049 µg/mL, 0.229 µg/mL and 0.077 µg/mL, respectively.
Turning to `CN(C/C=C/C#CC(C)(C)C)Cc1cccc2ccccc12` [TERBINAFINE], the EC50 in [1] worked out at 0.047 µg/mL (≈ 0.161 µM); in [2], 0.053 µg/mL; in experiment [3], 0.048 µg/mL; in experiment [4] it was 0.061 µg/mL; in experiment [5] it was 0.053 µg/mL; in [7], 0.082 µg/mL. The EC50 in experiment [8] amounted to 0.045 µg/mL; in [9], 0.063 µg/mL.
Turning to `OC(Cc1ccccc1Cl)(Cn1cncn1)C1(Cl)CC1` (stereo not drawn) [PROTHIOCONAZOLE-DESTHIO], the 50% effective concentration (EC50) is 0.00187 µg/mL (≈ 0.00599 µM) in [1]; 0.12 µg/mL in experiment [2]; 0.0126 µg/mL in experiment [3]; 0.221 µg/mL in experiment [4]; 0.126 µg/mL in experiment [5]; 0.0055 µg/mL in experiment [6]. For the same compound, the EC50 was determined as 0.0111 µg/mL in experiment [7], 0.135 µg/mL in experiment [8] and 0.0091 µg/mL in experiment [9].
Consider `CC1(C)CCC(Cc2ccc(Cl)cc2)C1(O)Cn1cncn1` (stereo not drawn) [METCONAZOLE], for which the half-maximal effective concentration (EC50) in experiment [1] was < 0.0002 µg/mL; in [2], 0.602 µg/mL; in experiment [3], 0.051 µg/mL; in experiment [4] it was 1.39 µg/mL; in experiment [7], 0.097 µg/mL; in experiment [8], 0.821 µg/mL. The concentration giving a half-maximal response (EC50) in [9] was found to be 0.032 µg/mL. The result in [10] and in [12] was inactive. The outcome in experiment [11], in [14], in [18] and in experiment [19] was Active. Also, the Activity in [13] is reported as 5674 pg; in experiment [15], 106 pg; in [16], 1600 pg; in experiment [17], 65 pg.
Consider `CC(C)(C)C(O)(CCc1ccc(Cl)cc1)Cn1cncn1` (stereo not drawn) [TEBUCONAZOLE], for which the EC50 came out at 0.041 µg/mL (≈ 0.133 µM) in [1]; 7.81 µg/mL in [2]; 1.24 µg/mL in experiment [3]; 20.7 µg/mL in experiment [4]; 15.4 µg/mL in experiment [5]; 1.5 µg/mL in [6]. Also, the half-maximal effective concentration (EC50) came to 2.34 µg/mL in [7], 8.22 µg/mL in experiment [8] and 2.7 µg/mL in experiment [9].
Take `O=C(Nc1ccccc1-c1ccc(Cl)cc1)c1cccnc1Cl` [BOSCALID]: the EC50 in [1] came out at 0.554 µg/mL (≈ 1.61 µM); in experiment [2], 0.976 µg/mL; in experiment [3], 0.841 µg/mL; in experiment [4], 0.719 µg/mL; in [6], 0.766 µg/mL; in [8] it was 0.808 µg/mL. Besides, the 50% effective concentration (EC50) in [9] was found to be 0.21 µg/mL.
`Fc1ccc([C@]2(Cn3cncn3)O[C@H]2c2ccccc2Cl)cc1` [EPOXICONAZOLE]: the EC50 was 0.0015 µg/mL (≈ 0.00455 µM) in [1]; 0.911 µg/mL in experiment [2]; 0.085 µg/mL in experiment [3]; 1.41 µg/mL in experiment [4]; 0.759 µg/mL in experiment [5]; 0.092 µg/mL in experiment [6]. Further, the results for the concentration for a half-maximal effect (EC50) in experiment [7], in experiment [8] and in experiment [9] were 0.091 µg/mL, 0.819 µg/mL and 0.067 µg/mL, respectively. Further, the Activity in experiment [20] turned out to be 400 pg; in [21], 14 pg; in [22], 9284 pg; in experiment [23], 1600 pg. Also, the result in [11], in [14], in experiment [18] and in experiment [19] was Active. Besides, the outcome in experiment [24] and in experiment [25] was inactive.
